Target: human TMEM16A (TMEM16Aabc variant) (Homo sapiens, UniProt Q5XXA6, DEL476-501, form not given)
Assay: Automated whole-cell patch clamp (Qpatch) TMEM16A potentiator assay in FRT cells stably expressing human TMEM16A
Format: cell-based
Conditions: for % Potentiation @ 3.33 μM Avg: 3.33 μM solution of test compound, percentage increase of baseline TMEM16A current; for EC50: calculated EC50, Qpatch TMEM16A current at +70 mV
Excerpt: FIG. 1 is an example trace from a whole-cell patch clamp (Qpatch) TMEM16A potentiator assay as used in Biological Example 95 and illustrates the methodology used in the assay. In FIG. 1: S is Saline; V is Vehicle; #1 is Test Compound concentration #1; #2 is Test Compound concentration 2; #3 is Test Compound concentration 3; #4 is Test Compound concentration 4; #5 is Test Compound concentration #5; and R is Reference. The arrow in column V represents the baseline current, IBL. The arrows in each of the columns #1, #2, #3, #4, #5 and R represent I#[1], I#[2], I#[3], I#[4], I#[5] and I[Ref], which are the peak currents during the incubation periods for test compounds concentrations #1 to #5 and the Reference.
Fisher rat thyroid (FRT) cells stably expressing human TMEM16A (TMEM16Aabc variant; Dr Luis Galietta, Insituto Giannina, Italy) were cultured in T-75 flasks in Hams F-12 media with Coon's modification (Sigma) supplemented with 10% (v/v) foetal bovine serum, penicillin-streptomycin (10,000 U/mL/10000 μg/mL), G-418 (750 μg/mL), L-glutamine (2 mM) and sodium bicarbonate solution (7.5% v/v). At ˜90% confluence cells were harvested for experiments by detachment with a 2:1 (v/v) mixture of Detachin (BMS Biotechnology) and 0.25% (w/v) trypsin-EDTA. Cells were diluted to a density of 3.5-4.5×10^6 cells/mL with media consisting of CHO-S-SFM II (Sigma), 25 mM HEPES (Sigma) and Soy bean trypsin inhibitor (Sigma).
FRT-TMEM16A cells were whole-cell patch clamped using an automated planar patch clamp system (Qpatch, Sophion). Briefly, once high resistance (GOhm) seals were established between the cells and the planar recording array the patch was ruptured using suction pulses to establish the whole-cell recording configuration of the patch clamp technique. The assay employed the following solutions (all reagents Sigma): Intracellular solution (mM): N-methyl-D-glucamine 130, CaCl2 18.2, MgCl2 1, HEPES 10, EGTA 10, BAPTA 20, Mg-ATP 2, pH 7.25, 325 mOsm with sucrose.
Extracellular solution (mM): N-methyl-D-glucamine 130, CaCl2 2, MgCl2 1, HEPES 10, pH 7.3, 320 mOsm with sucrose.
The intracellular solution buffers intracellular calcium at levels required to give ˜20% activation of the maximal TMEM16A mediated current (EC20 for calcium ions). Cells were voltage clamped at a holding potential of −70 mV and a combined voltage step (to +70 mV)/ramp (−90 my to +90 mV) was applied at 0.05 Hz. After a period of current stabilisation test compounds, solubilised in 100% (v/v) DMSO and subsequently diluted into extracellular solution, were applied to generate a cumulative concentration response curve. Each concentration of test compound was incubated for 5 minutes before addition of the next concentration. After the final concentration was tested a supramaximal concentration of either a known active positive modulator or the TMEM16A inhibitor, CaCCinhA01 (Del La Fuente et al, 2008) was added to define the upper and lower limits of the assay.
Compound activity was quantified by measuring the increase in current upon compound addition and expressing this as a percentage increase of baseline TMEM16A current level. Percentage increases in current were determined for each concentration and the data plotted as a function of concentration using either the Qpatch software or Graphpad Prism v6.05 providing the concentration which gave 50% of its maximal effect (EC50) and maximum efficacy (percentage of baseline increase).
In FIG. 1, IBL equals baseline current, I[#1] equals the peak current during test compound concentration 1 incubation period and so on.
Peak TMEM16A current at +70 mV was plotted as a function of time over the assay period. Baseline current (IBL) was measured after a period of stabilisation. The increase in current for each compound addition was determined by taking the peak current during the incubation period and subtracting the current from the previous recording period and then expressing this as a percentage of the baseline current. […]

Sequence of human TMEM16A (TMEM16Aabc variant) (Q5XXA6 with tags, fused parts or gaps DEL476-501): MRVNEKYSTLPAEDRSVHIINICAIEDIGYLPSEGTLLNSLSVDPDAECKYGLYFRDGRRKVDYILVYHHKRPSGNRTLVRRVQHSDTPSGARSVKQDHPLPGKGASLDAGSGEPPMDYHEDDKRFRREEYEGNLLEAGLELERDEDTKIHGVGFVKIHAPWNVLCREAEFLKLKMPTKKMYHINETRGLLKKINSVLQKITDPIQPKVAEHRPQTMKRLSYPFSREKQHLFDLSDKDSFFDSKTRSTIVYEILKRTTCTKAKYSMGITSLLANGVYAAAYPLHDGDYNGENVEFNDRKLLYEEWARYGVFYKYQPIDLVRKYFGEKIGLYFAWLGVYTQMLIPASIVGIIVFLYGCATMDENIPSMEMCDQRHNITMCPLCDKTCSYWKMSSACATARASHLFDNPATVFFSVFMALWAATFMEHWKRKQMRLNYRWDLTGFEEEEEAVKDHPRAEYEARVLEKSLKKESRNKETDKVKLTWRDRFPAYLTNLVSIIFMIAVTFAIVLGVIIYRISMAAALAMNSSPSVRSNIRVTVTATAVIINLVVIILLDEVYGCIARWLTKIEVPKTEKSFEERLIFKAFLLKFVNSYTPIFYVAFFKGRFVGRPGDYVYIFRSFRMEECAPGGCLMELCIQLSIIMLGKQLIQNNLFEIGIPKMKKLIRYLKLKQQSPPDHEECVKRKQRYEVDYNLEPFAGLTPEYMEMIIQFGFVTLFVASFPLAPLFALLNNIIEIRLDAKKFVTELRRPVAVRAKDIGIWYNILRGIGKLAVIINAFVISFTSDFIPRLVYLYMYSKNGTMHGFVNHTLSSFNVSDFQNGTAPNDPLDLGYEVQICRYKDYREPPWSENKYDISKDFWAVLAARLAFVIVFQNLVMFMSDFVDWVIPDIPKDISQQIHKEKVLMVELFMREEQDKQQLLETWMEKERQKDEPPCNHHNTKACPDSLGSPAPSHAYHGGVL

SMILES	% Potentiation @ 3.33 μM Avg [%]	EC50 [nM]
CC(C)(C)NC(=O)c1cc(NC(=O)Cc2cc(Cl)ccc2O)ccc1O [Example 11, N-tert-Butyl-5-[[2-(5-chloro-2-hydroxy-phenyl)acetyl]amino]-2-hydroxy-benzamide]	76	900
CC(C)(C)c1ccc(O)c(CC(=O)Nc2ccnc(C(=O)NC3(C#N)CCC3)c2)c1 [Example 3.5a, 4-[[2-(5-tert-Butyl-2-hydroxy-phenyl)acetyl]amino]-N-(1-cyanocyclobutyl)pyridine-2-carboxamide]	311	500
O=C(Cc1cc(Cl)ccc1O)Nc1cccc(C(=O)NC2CCCCC2)c1 [Example 7.3, 3-[[2-(5-Chloro-2-hydroxy-phenyl)acetyl]amino]-N-cyclohexyl-benzamide]	125	200
O=C(Cc1cc(F)ccc1O)Nc1ccnc(C(=O)NC2(CO)CCOC2)c1 (centres unmarked) [Example 72, 4-[[2-(5-Fluoro-2-hydroxy-phenyl)acetyl]amino]-N-[3-(hydroxymethyl)tetrahydrofuran-3-yl]pyridine-2-carboxamide]	53	–
CC(C)(C)NC(=O)c1cc(NC(=O)Cc2cccc(F)c2Cl)ccn1 [Example 40, N-tert-Butyl-4-[[2-(2-chloro-3-fluoro-phenyl)acetyl]amino] pyridine-2-carboxamide]	153	700
CC(C)(C)NC(=O)c1cc(NC(=O)Cc2ccc(F)cc2)ccn1 [Example 5.13, N-tert-Butyl-4-[[2-(4-fluorophenyl)acetyl]amino]pyridine-2-carboxamide]	94	1140
O=C(Cc1cc(Cl)ccc1O)Nc1ccnc(C(=O)NC2CCCCC2)c1 [Example 1.10, 4-[[2-(5-Chloro-2-hydroxy-phenyl)acetyl]amino]-N-cyclohexyl-pyridine-2-carboxamide]	200	80
CC1(NC(=O)c2cc(NC(=O)Cc3cc(Cl)ccc3O)ccn2)CCC1 [Example 1.6, 4-[[2-(5-Chloro-2-hydroxy-phenyl)acetyl]amino]-N-(1-methylcyclobutyl)pyridine-2-carboxamide]	255	60
C#CC(C)(C)NC(=O)c1cc(NC(=O)Cc2ccc(Cl)cc2O)ccn1 [Example 78, 4-[[2-(4-Chloro-2-hydroxy-phenyl)acetyl]amino]-N-(1,1-dimethylprop-2-ynyl)pyridine-2-carboxamide]	98	20
COc1cc(C(F)(F)F)ccc1CC(=O)Nc1cccc(C(=O)NC(C)(C)C)c1 [Example 4.9, N-tert-Butyl-3-[[2-[2-methoxy-4-(trifluoromethyl)phenyl]acetyl]amino]benzamide]	60	4660
CC(C)(C)NC(=O)c1cccc(NC(=O)Cc2ccc(C(F)(F)F)cc2O)c1 [Example 2.19, N-tert-Butyl-3-[[2-[2-hydroxy-4-(trifluoromethyl)phenyl]acetyl]amino]benzamide]	249	460
O=C(Cc1cc(Cl)ccc1O)Nc1ccnc(C(=O)NC2(CO)COC2)c1 [Example 35.26, 4-[[2-(5-Chloro-2-hydroxy-phenyl)acetyl]amino]-N-[3-(hydroxymethyl)oxetan-3-yl]pyridine-2-carboxamide]	157	–
CC(C)(C#N)NC(=O)c1cc(NC(=O)c2conc2-c2ccccc2)ccn1 [Example 83.20, N-[2-[(1-Cyano-1-methyl-ethyl)carbamoyl]-4-pyridyl]-3-phenyl-isoxazole-4-carboxamide]	9	–
CC(C)(C)NC(=O)c1cc(NC(=O)Cc2ccccc2Cl)ccn1 [Example 5.20, N-tert-Butyl-4-[[2-(2-chlorophenyl)acetyl]amino]pyridine-2-carboxamide]	221	570
CC(C)(C)NC(=O)c1cc(NC(=O)Cc2ccc(C(C)(C)C)c(O)c2)ccn1 [Example 89, N-tert-Butyl-4-[[2-(4-tert-butyl-3-hydroxy-phenyl)acetyl]amino]pyridine-2-carboxamide]	366	90
CC(C)(C)NC(=O)c1cc(NC(=O)Cc2cc(F)cc(F)c2)ccn1 [Example 23.7, N-tert-Butyl-4-[[2-(3,5-difluorophenyl)acetyl]amino]pyridine-2-carboxamide]	98	–
CC(C(=O)Nc1cccc(C(=O)NC(C)(C)C)c1)c1ccccc1O (centres unmarked) [Example 2.7, N-tert-Butyl-3-[2-(2-hydroxyphenyl)propanamido]benzamide]	51	8190
CC(C)(C)NCc1cc(O)c(CC(=O)Nc2ccnc(C(=O)NC(C)(C)C)c2)cc1Cl [Example 27.1, N-tert-Butyl-4-[[2-[4-[(tert-butylamino)methyl]-5-chloro-2-hydroxy-phenyl]acetyl]amino]pyridine-2-carboxamide]	52	–
O=C(Cc1cc(Cl)ccc1O)Nc1ccnc(C(=O)N[C@H]2CC[C@@H](O)CC2)c1 [Example 7.12, 4-[2-(5-Chloro-2-hydroxyphenyl)acetamido]-N-[(1s,4s)-4-hydroxycyclohexyl]pyridine-2-carboxamide]	101	2110
CC(C)(C)NC(=O)c1cc(NC(=O)Cc2cc(Cl)ccc2F)ccn1 [Example 5.3, N-tert-Butyl-4-[[2-(5-chloro-2-fluoro-phenyl)acetyl]amino]pyridine-2-carboxamide]	152	880
CC(C)(C#N)NC(=O)c1cc(NC(=O)C2(Cc3ccccc3)CC2)ccn1 [Example 83.11, 4-[(1-Benzylcyclopropanecarbonyl)amino]-N-(1-cyano-1-methyl-ethyl)pyridine-2-carboxamide]	13	–
COC(=O)C1(NC(=O)c2cc(NC(=O)Cc3cc(Cl)ccc3O)ccn2)CCOCC1 [Example 47.2, Methyl 4-[[4-[[2-(5-chloro-2-hydroxy-phenyl)acetyl]amino]pyridine-2-carbonyl]amino]tetrahydropyran-4-carboxylate]	212	230
CC(C)(C)c1ccc(CC(=O)Nc2ccnc(C(=O)N[C@H]3CCC[C@@H]3O)c2)cc1O [Example 93.2, 4-[2-(4-tert-butyl-3-hydroxyphenyl)acetamido]-N-[(1S,2S)-2-hydroxycyclopentyl]pyridine-2-carboxamide]	220	40
Cc1ccc(O)c(CC(=O)Nc2ccnc(C(=O)NC(C)(C)C)c2)c1 [Example 15, N-tert-Butyl-4-[[2-(2-hydroxy-5-methyl-phenyl)acetyl]amino]pyridine-2-carboxamide]	200	130
CC(C)(C)NC(=O)c1cc(NC(=O)NCc2cccc(O)c2)ccn1 [Example 65.3, N-tert-Butyl-4-[(3-hydroxyphenyl)methylcarbamoylamino]pyridine-2-carboxamide]	33	–
Cc1nn(-c2ccccc2)cc1C(=O)Nc1ccnc(C(=O)NC(C)(C)C#N)c1 [Example 83.24, N-(1-Cyano-1-methyl-ethyl)-4-[(3-methyl-1-phenyl-pyrazole-4-carbonyl)amino]pyridine-2-carboxamide]	55	–

— patent publication US20200361871A1 (Enterprise Therapeutics Ltd., priority 2018, published 2020)
